Calls of active or inactive are those of the source.
Legend:
[1] = biological target: Beta-galactosidase (Escherichia coli, UniProt Q8VNN2); experiment: Dose response counterscreen for EBI2 assay utilizing the enzyme, b-galactosidase.; type: functional
[2] = cells; type: functional, cell-based
[3] = biological target: T1, Trace amine-associated receptor 1 (Homo sapiens, UniProt Q96RJ0); experiment: Fluorescence-based cell-based high throughput dose response assay to identify agonists of the human trace amine associated receptor 1 (TAAR1).; type: functional
T1 sequence (Q96RJ0 whole entry): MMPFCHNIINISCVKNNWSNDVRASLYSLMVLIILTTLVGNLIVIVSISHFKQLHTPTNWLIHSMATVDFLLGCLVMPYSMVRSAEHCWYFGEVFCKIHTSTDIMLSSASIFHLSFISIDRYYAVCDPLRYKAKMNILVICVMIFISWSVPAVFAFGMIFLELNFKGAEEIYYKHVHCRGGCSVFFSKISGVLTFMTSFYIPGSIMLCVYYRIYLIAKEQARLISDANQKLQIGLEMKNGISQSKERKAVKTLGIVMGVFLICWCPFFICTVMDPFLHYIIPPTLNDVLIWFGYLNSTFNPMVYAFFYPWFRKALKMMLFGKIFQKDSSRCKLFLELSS

[4] = biological target: T1, Trace amine-associated receptor 1; experiment: Counterscreen for agonists of the human trace amine associated receptor 1 (hTAAR1): Fluorescence-based cell-based high throughput dose response assay to identify hTAAR1 agonist that also desensitize TAAR1 receptor response.; type: functional
[5] = cells; type: functional, cell-based; remark: listed apart in the source
[6] = NIH-3T3 fibroblast cytotoxicity, dose response, cytotoxicity control, cell-based, fluorescence, Alamar Blue, secondary assay (AID 2327); type: functional;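 further: NIH-3T3 mouse fibroblasts cultured with fluconazole at 8 µg/mL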
[7] = fluconazole-exposed Candida albicans growth modulators – fluorescence, retest, confirmation (AID 2467); type: functional, cell-based
[8] = microbe, parasite or virus in culture; type: functional; settings: Mycobacterium tuberculosis
[9] = THP-1 cell cytotoxicity, dose response, cytotoxicity control for non-replicating M. tuberculosis project (AID 489025); type: functional
[10] = Vero E6 cell cytotoxicity, dose response, cytotoxicity control for non-replicating M. tuberculosis project, secondary assay (AID 492998); type: functional, VeroE6; settings: Vero C1008
[11] = cells; type: functional
[12] = biological target: Albumin (Bos taurus, UniProt P02769); experiment: Counterscreen for inhibitors of T-cell receptor (TCR)-CD3 interaction: Fluorescence-based biochemical high throughput dose response assay to identify inhibitors of T-cell receptor (TCR)-CD3 interaction using a TAMRA-labeled BSA probe.; type: functional
Chain of Albumin (P02769 whole entry): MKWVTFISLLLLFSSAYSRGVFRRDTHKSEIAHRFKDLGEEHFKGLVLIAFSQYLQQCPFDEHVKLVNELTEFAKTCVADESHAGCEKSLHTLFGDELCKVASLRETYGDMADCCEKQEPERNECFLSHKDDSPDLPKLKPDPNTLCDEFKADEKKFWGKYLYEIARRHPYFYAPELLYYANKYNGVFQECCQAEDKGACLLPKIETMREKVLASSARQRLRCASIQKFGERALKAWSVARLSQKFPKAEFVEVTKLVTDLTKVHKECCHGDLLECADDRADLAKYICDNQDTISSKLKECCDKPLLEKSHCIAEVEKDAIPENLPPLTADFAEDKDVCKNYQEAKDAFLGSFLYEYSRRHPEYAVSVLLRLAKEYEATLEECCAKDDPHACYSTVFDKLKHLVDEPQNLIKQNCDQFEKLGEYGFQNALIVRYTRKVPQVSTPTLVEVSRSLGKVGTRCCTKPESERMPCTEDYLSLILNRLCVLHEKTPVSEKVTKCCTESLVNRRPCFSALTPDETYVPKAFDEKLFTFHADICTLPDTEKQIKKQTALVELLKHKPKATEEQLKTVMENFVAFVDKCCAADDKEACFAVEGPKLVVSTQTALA

[13] = biological target: Luciferin 4-monooxygenase (Photinus pyralis, UniProt P08659); experiment: Counter Screen for Luciferase-based Assay Positives. [Related pubchem assays: 620, 618, 411 ]
Chain of Luciferin 4-monooxygenase (P08659 whole entry): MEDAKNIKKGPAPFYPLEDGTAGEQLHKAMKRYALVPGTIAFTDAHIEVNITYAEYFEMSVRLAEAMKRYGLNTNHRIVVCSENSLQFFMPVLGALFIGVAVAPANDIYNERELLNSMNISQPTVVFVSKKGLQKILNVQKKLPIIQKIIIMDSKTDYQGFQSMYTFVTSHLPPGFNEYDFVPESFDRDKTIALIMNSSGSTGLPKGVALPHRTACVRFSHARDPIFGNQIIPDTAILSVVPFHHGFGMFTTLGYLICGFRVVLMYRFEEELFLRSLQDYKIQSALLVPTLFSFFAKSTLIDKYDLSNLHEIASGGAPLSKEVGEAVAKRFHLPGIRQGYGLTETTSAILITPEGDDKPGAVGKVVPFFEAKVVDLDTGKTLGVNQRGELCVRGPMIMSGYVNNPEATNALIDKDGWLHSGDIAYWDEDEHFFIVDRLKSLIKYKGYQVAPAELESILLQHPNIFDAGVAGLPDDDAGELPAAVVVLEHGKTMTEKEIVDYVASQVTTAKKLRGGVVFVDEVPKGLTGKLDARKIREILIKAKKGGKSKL

[14] = test system: HT-1080; experiment: HT1080 cell viability loss – fluorescence readout (AID 620); type: functional, cell-based; settings: Homo sapiens
[15] = test system: HEK293; experiment: EBV LMP1 TES2 canonical NF-kB signalling blockers – cell-based, HEK293, luciferase, cherry-pick, dose response (AID 588343); type: functional, Homo sapiens; settings: Homo sapiens, HEK293
[16] = A549 cell cytotoxicity, dose response, cytotoxicity control, plate reader, cherry-pick, antagonist series (AID 743412); type: functional, cell-based
[17] = toxicity toward HepG2 liver cells – cell-based, plate reader, cherry-pick, antagonist series, cytotoxicity control, dose response (AID 743416); type: functional
[18] = blockers of bursicon-stimulated LGR2 cAMP reporter – cell-based, HEK293, CRE-luciferase reporter, cherry pick, set 2, dose response (AID 743343); type: functional;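 further: transfected cells were stimulated with diluted bursicon conditioned medium after compound addition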
[19] = blockade of melanocortin 4 receptor signaling – cell-based, plate reader, cherry pick, counter-screen for LGR2 antagonist project, dose response (AID 743444); type: functional;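 further: transfected HEK 293 cells stimulated with alpha-MSH peptide; potency of inhibitors of the alpha-MSH evoked signal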
[20] = viability loss in HEK293 cells – cell-based, plate reader, cherry-picked samples, cytotoxicity control, dose response (AID 743446); type: functional
[21] = biological target: T2, Heat shock factor protein 1 (Mus musculus, UniProt P38532); experiment: enhancement of HSF1-driven luciferase signal – cell-based, NIH3T3, luminescence, dose retest, confirmation (AID 435004); type: functional;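 further: stress induced by proteasome inhibitor MG132 added 30 min after compound; luciferase reporter driven by HSF1 response element in NIH3T3 cells; actives raise luminescence as potentiators of the MG132 stress response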
T2 sequence (P38532 whole entry): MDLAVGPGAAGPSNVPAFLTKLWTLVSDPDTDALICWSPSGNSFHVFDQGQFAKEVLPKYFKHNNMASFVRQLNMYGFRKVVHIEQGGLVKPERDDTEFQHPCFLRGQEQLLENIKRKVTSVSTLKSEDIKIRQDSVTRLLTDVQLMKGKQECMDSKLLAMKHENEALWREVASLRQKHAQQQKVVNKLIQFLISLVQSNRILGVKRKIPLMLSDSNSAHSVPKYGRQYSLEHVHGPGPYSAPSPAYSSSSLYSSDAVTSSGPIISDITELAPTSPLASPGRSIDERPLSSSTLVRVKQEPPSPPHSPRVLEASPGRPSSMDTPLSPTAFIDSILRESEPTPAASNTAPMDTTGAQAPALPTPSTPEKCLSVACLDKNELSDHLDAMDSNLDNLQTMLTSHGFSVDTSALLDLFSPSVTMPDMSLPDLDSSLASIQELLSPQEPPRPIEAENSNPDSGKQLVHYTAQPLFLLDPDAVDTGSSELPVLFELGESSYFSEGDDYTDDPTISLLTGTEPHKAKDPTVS

[22] = biological target: T3, Methionyl-tRNA synthetase, putative (Trypanosoma brucei brucei, UniProt Q38C91); type: functional, Trypanosoma brucei brucei strain 927/4 GUTat10.1
T3 sequence (Q38C91 whole entry): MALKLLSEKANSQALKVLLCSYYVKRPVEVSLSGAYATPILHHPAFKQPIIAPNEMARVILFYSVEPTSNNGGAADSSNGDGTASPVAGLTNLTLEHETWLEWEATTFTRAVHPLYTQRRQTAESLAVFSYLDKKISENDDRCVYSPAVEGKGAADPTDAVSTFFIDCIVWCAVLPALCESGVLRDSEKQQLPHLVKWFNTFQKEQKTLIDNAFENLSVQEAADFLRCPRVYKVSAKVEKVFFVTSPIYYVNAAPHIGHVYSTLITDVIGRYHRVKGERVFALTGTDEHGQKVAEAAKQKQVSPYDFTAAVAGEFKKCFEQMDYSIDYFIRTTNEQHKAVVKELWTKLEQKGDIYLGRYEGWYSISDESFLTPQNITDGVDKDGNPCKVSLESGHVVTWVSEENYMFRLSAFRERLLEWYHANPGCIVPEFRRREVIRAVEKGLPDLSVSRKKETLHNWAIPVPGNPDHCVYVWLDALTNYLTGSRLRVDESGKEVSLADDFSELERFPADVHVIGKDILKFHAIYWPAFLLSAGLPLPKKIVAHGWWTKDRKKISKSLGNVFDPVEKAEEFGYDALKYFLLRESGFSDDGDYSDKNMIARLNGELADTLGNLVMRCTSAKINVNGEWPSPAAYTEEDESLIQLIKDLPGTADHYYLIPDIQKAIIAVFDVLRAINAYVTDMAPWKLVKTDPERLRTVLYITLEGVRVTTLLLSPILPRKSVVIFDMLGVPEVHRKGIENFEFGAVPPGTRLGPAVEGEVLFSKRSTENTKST

[23] = Counterscreen for inhibitors of Trypanosoma brucei methionyl tRNA synthetase (MetRS): Luminescence-based cell-based high throughput dose response assay to identify compounds that are cytotoxic to Jurkat human T lymphocyte cells.; type: functional
[24] = biological target: T3, Methionyl-tRNA synthetase, putative; type: functional, Trypanosoma brucei brucei strain 927/4 GUTat10.1; remark: listed apart in the source
[25] = blockers of HIV-1 envelope-mediated cell-cell fusion – cherry-pick, dose response (AID 652057); type: functional, cell-based
[26] = blockers of HIV-1 ZM109 envelope-driven cell-cell fusion – HeLa effector, CEM target cells, luciferase, cherry-pick, dose response (AID 652058); type: functional, cell-based;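 further: luciferase signal from HIV-1 Env mediated cell-cell fusion of effector and target cells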
[27] = off-target signal loss in HeLa-CEM21 co-culture – HeLa F-luc CTL cells, cherry-picked, counter-screen for HIV-1 Env fusion inhibitor project, dose response (AID 652040); type: functional, cell-based;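 further: potency for signal decrease marking cytotoxic or nonspecific inhibition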
[28] = HIV-1 AD8 envelope cell-cell fusion blockers – cherry-pick, dose response (AID 652062); type: functional, cell-based;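 further: luciferase signal from cell-cell fusion driven by HIV-1 clade B AD8 Env; potency is for inhibitors of fusion seen as a drop in luminescence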
[29] = test system: Vero; experiment: cells; type: functional; settings: Chlorocebus sabaeus
[30] = biological target: T4, Caspase-6 (Homo sapiens, UniProt P55212); experiment: inhibition of CASP6 peptide cleavage – biochemical, VEID-R110 fluorescence, cherry-pick, dose response (AID 720632)
T4 sequence (P55212 whole entry): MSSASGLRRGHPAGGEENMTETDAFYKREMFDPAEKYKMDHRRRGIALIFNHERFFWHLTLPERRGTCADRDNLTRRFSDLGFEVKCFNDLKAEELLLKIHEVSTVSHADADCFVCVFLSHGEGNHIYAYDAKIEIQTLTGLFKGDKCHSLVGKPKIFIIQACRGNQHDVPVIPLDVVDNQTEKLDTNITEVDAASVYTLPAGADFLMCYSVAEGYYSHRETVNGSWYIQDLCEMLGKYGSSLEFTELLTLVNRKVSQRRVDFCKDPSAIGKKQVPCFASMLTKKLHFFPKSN

[31] = viability of uninfected HEp-2 cells – cell-based, HTS, cytotoxicity control for RSV inhibitor project, dose response (AID 2410); type: functional; settings: human respiratory syncytial virus
[32] = cytotoxicity in HEK293 background cells – cell-based, dry powder, set 2, counter-screen for EBV LMP1 inhibitor project, dose response (AID 624374); type: functional
[33] = Cytotoxicity screening for potential Inhibitors of Bacterial Capsule Biogenesis (4).; type: functional
[34] = test system: Streptococcus sp. 'group A'; experiment: Streptococcus pyogenes SK(-)GAS viability under kanamycin – luminescence, BacTiterGlo, confirmation, counter-screen for streptokinase expression inhibitor project, dose response (AID 1900); type: functional, organism-based
[35] = test system: Streptococcus; experiment: GAS UMAA2166 growth inhibition – luminescence, BacTiterGlo, counter-screen for streptokinase expression inhibitor project, dose response (AID 1915); type: functional, organism-based;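 further: potency for reduction of bacterial viability or growth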

Chain of Beta-galactosidase (Q8VNN2 whole entry): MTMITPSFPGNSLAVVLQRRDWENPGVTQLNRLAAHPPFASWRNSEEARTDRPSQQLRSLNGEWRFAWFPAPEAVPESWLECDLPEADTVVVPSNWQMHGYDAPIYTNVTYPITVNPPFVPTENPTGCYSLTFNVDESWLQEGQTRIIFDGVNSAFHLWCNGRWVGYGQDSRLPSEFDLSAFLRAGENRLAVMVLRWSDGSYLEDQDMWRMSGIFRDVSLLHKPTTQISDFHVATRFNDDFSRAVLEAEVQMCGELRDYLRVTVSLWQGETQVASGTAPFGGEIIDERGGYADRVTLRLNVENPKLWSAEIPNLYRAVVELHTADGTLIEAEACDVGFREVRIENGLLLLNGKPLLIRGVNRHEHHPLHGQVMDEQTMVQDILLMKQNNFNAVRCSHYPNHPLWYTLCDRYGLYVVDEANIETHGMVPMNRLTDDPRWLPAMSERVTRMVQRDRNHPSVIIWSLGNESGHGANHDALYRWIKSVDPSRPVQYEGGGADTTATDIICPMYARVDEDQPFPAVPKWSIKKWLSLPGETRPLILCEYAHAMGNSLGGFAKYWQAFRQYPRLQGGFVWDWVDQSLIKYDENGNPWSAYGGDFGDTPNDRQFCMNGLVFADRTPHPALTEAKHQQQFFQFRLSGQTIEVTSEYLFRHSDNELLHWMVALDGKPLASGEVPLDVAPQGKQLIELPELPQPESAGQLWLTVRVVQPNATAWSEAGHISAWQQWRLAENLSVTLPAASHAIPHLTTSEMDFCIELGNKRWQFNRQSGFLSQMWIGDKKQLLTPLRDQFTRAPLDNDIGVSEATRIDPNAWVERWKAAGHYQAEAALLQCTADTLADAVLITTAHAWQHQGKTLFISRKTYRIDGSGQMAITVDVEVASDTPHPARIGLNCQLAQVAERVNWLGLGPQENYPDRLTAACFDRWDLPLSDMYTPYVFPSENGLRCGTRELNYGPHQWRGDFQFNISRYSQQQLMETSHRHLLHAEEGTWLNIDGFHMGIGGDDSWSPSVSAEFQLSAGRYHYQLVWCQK

COc1ccc(-n2cc(-c3ccc(Cl)cc3)nc2S)cc1
IC50 [1]: > 80 µM (inactive)

COc1cc(/C=C(\C#N)C(N)=O)ccc1OS(=O)(=O)c1ccc(C)cc1
IC50 [1]: > 80 µM (inactive)

Cc1ccc(C)c(N2CN(CCC3=CCCCC3)CN=C2S)c1
IC50 [2]: > 29.9 µM (inactive) | EC50 [3]: 4.03 µM (active) | IC50 [4]: 7.73 µM (active) | EC50 [5]: > 29.9 µM (inactive)

Cc1cc2oc3ccc(NCCCn4ccnc4)cc3c(=O)c2cc1C
EC50 [6]: 24.7 µM (active) | EC50 [7]: 1.82 µM (active) | CC50 [8]: 12.4 µM (active) | CC50 [9]: 26.9 µM (active) | CC50 [10]: 14.6 µM (active) | IC50 [11]: 27.9 µM (active) | IC50 [12]: > 94.1 µM (inactive)

Cc1cc2c(cc1S(=O)(=O)CCC(=O)NCCc1ccccc1)OCC(=O)N2
IC50 [2]: > 29.9 µM (inactive) | EC50 [3]: 3.59 µM (active) | IC50 [4]: 5.78 µM (active) | EC50 [5]: > 29.9 µM (inactive)

c1ccc(-c2nc(-c3ccccn3)no2)cc1
EC50 [13]: 350 nM (active) | EC50 [14]: > 50 µM (not active) | AC50 [15]: 1.68 µM (active) | AC50 [16]: 6.2 µM (active) | AC50 [17]: 9.19 µM (active) | AC50 [18]: 2.65 µM (active) | AC50 [19]: 2.47 µM (active) | AC50 [20]: 7.31 µM (active)

Cn1c(CCCOc2ccc(Cl)cc2Cl)nnc1SCC(=O)Nc1cccc(F)c1
EC50 [21]: 181 µM (active) | IC50 [22]: 119 µM (inactive) | IC50 [23]: 28.3 µM (inactive) | IC50 [24]: 52.2 µM (inactive)

O=C(CCCCn1c(=O)[nH]c2ccccc2c1=O)N1CCN(c2cccc(C(F)(F)F)c2)CC1
AC50 [25]: 11.1 µM (active) | AC50 [26]: 3.8 µM (active) | AC50 [27]: 16 µM (active) | AC50 [28]: 8.93 µM (active)

O=[N+]([O-])c1ccc(/C=[N+](\[O-])[C@@H]2CCCC[C@@H]2/[N+]([O-])=C/c2ccc([N+](=O)[O-])o2)o1
EC50 [21]: 8.46 µM (active) | CC50 [29]: 14.8 µM (active) | AC50 [30]: 41.1 µM (active)

CCC(=O)Nc1cccc(-c2ccc(N3CCC(C)CC3)nn2)c1
CC50 [31]: 26.9 µM (active) | AC50 [16]: > 52 µM (inactive) | AC50 [17]: > 52 µM (inactive) | AC50 [18]: 6.78 µM (active) | AC50 [19]: 10.3 µM (active) | AC50 [20]: 35.7 µM (active)

COc1ccc(-n2nnnc2C(c2ccccc2OC(F)(F)F)N2CCN(C/C=C/c3ccccc3)CC2)cc1 (configuration not stated)
IC50 [1]: > 80 µM (inactive)

CC(CNC(=O)[C@H]1O[C@@H](n2cnc3c(=O)[nH]c(N)nc32)[C@H](O)[C@@H]1O)c1ccccc1 (some centres not stated)
IC50 [2]: > 29.9 µM (inactive) | EC50 [3]: 1.54 µM (active) | IC50 [4]: 3.77 µM (active) | EC50 [5]: > 29.9 µM (inactive)

CO[C@@H]1CN(C)C(=O)c2ccc(NC(C)=O)cc2OC[C@@H](C)N(Cc2ccccc2F)C[C@H]1C
AbsAC35 [32]: 167.32 µM

O=C(C[C@@H]1CC[C@@H]2[C@H](COC[C@@H](O)CN2Cc2ccc(Oc3ccccc3)cc2)O1)N1CCc2ccccc2C1
AbsAC35 [32]: 79.64 µM

N#C[C@@H]1[C@H](c2ccc(C#Cc3ccccc3F)cc2)[C@@H](CO)N1C(=O)c1cccnc1
AbsAC35 [32]: 93.82 µM

Cc1cnccc1NC(=O)c1ccc2ncsc2c1
CC50 [33]: > 300 µM (inactive)

Cc1cc(NC(=O)c2ccc3nc(NC(=O)OC(C)(C)C)sc3c2)ccn1
CC50 [33]: 96.8 µM (active)

O=C(Nc1ccncc1F)c1ccc2ncsc2c1
CC50 [33]: > 300 µM (inactive)

CCOC(=O)[C@H](Cc1c[nH]c2ccccc12)NC(=O)CN=[N+]=[N-]
AC50 [30]: 6.78 µM (active)

Cc1cc(C(=O)N/N=C/c2cc(Br)cc([N+](=O)[O-])c2O)c2ccccc2n1
EC50 [34]: 1.36 µM (active) | EC50 [35]: 1.5 µM (active) | IC50 [12]: > 94.1 µM (inactive)
